In ChEMBL document CHEMBL6153104, “Discovery of the first potent ROR1 degrader for the treatment of non-small cell lung cancer” (Eur J Med Chem, 2025):
Values belong to the molecule of their own block, whether it stands above or below them. Active and inactive are the calls of the source. The calls are words filed in the database; no cut-off is given here.

Columns and labels:
NCI-H23 [1] = experiment: Induction of apoptosis in human NCI-H23 cells assessed as late apoptotic cells at 0.3 uM incubated for 24 hrs by […]/Annexin V-PE staining based flow cytometric analysis (reference value: 1.6 %); type: functional
NCI-H23 [2] = experiment: Induction of apoptosis in human NCI-H23 cells assessed as viable cells at 1 uM incubated for 24 hrs by […]/Annexin V-PE staining based flow cytometric analysis (reference value: 92.7 %); type: functional; settings: read-out: Activity
NCI-H23 [3] = experiment: Induction of apoptosis in human NCI-H23 cells assessed as necrotic cells at 0.3 uM incubated for 24 hrs by […]/Annexin V-PE staining based flow cytometric analysis (reference value: 0.5 %); type: functional
NCI-H23 [4] = experiment: Induction of apoptosis in human NCI-H23 cells assessed as late apoptotic cells at 0.1 uM incubated for 24 hrs by […]/Annexin V-PE staining based flow cytometric analysis (reference value: 1.6 %); type: functional
NCI-H23 [5] = experiment: Induction of apoptosis in human NCI-H23 cells assessed as viable cells at 0.1 uM incubated for 24 hrs by […]/Annexin V-PE staining based flow cytometric analysis (reference value: 92.7 %); type: functional; settings: read-out: Activity
NCI-H23 [6] = experiment: Induction of apoptosis in human NCI-H23 cells assessed as necrotic cells at 1 uM incubated for 24 hrs by […]/Annexin V-PE staining based flow cytometric analysis (reference value: 0.5 %); type: functional
NCI-H23 [7] = experiment: Induction of apoptosis in human NCI-H23 cells assessed as necrotic cells at 0.1 uM incubated for 24 hrs by […]/Annexin V-PE staining based flow cytometric analysis (reference value: 0.5 %); type: functional
NCI-H23 [8] = experiment: Induction of apoptosis in human NCI-H23 cells assessed as PARP1 cleavage at 0.1 to 1 uM measured after 10 hrs by Western blot analysis; type: functional, cell-based; settings: dose 0.1-1 µM
NCI-H23 [9] = experiment: Induction of apoptosis in human NCI-H23 cells assessed as early apoptotic cells at 0.3 uM incubated for 24 hrs by […]/Annexin V-PE staining based flow cytometric analysis (reference value: 5.1 %); type: functional
NCI-H23 [10] = experiment: Induction of apoptosis in human NCI-H23 cells assessed as early apoptotic cells at 1 uM incubated for 24 hrs by […]/Annexin V-PE staining based flow cytometric analysis (reference value: 5.1 %); type: functional
NCI-H23 [11] = experiment: Induction of apoptosis in human NCI-H23 cells assessed as PARP1 cleavage at 1 uM measured after 10 hrs by Western blot analysis; type: functional
NCI-H23 [12] = experiment: Induction of apoptosis in human NCI-H23 cells assessed as late apoptotic cells at 1 uM incubated for 24 hrs by […]/Annexin V-PE staining based flow cytometric analysis (reference value: 1.6 %); type: functional
NCI-H460 = experiment: Antiproliferative activity against human NCI-H460 cells assessed as inhibition of cell proliferation incubated for 72 hrs by CCK8 assay; type: functional, cell-based; settings: NCI-H460, 72 h
NCI-H23 [13] = experiment: Induction of apoptosis in human NCI-H23 cells assessed as viable cells at 0.3 uM incubated for 24 hrs by […]/Annexin V-PE staining based flow cytometric analysis (reference value: 92.7 %); type: functional; settings: read-out: Activity
[14] = biological target: Inactive tyrosine-protein kinase transmembrane receptor ROR1 (Homo sapiens, UniProt Q01973); experiment: Binding affinity to RED-NHS-labeled human ROR1 kinase domain (460 to 752 residues) extracted from Sf9 cells assessed as dissociation constant incubated for 30 mins by MST analysis; type: cell-free
NCI-H23 [15] = experiment: Induction of apoptosis in human NCI-H23 cells assessed as early apoptotic cells at 0.1 uM incubated for 24 hrs by […]/Annexin V-PE staining based flow cytometric analysis (reference value: 5.1 %); type: functional
NCI-H1975 = experiment: Antiproliferative activity against human NCI-H1975 cells assessed as inhibition of cell proliferation incubated for 72 hrs by CCK8 assay; type: functional, cell-based; settings: NCI-H1975, 72 h
NCI-H1299 = experiment: Antiproliferative activity against human NCI-H1299 cells assessed as inhibition of cell proliferation incubated for 72 hrs by CCK8 assay; type: functional, cell-based; settings: NCI-H1299, 72 h
NCI-H23 [16] = experiment: Antiproliferative activity against human NCI-H23 cells assessed as inhibition of cell proliferation incubated for 72 hrs by CCK8 assay; type: functional, cell-based; settings: NCI-H23, 72 h
[17] = biological target: T1, von Hippel-Lindau disease tumor suppressor/Inactive tyrosine-protein kinase transmembrane receptor ROR1 (Homo sapiens, UniProt P40337+Q01973); experiment: PROTAC activity at VHL/ROR1 in human NCI-H23 cells assessed as induction of ROR1 degradation at 0.7 uM preincubated with TAK-243 for 2 hrs followed by compound addition and measured after 24 hrs by Western blot analysis; type: cell-based
Target sequence in this assay (P40337 whole entry): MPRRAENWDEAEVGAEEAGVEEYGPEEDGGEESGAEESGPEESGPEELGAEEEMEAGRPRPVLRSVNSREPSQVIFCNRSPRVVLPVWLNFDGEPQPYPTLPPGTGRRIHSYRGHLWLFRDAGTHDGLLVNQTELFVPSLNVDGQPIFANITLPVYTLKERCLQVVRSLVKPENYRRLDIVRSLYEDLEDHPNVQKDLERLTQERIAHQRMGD
Target sequence in this assay (Q01973 30-937 partner limits assumed): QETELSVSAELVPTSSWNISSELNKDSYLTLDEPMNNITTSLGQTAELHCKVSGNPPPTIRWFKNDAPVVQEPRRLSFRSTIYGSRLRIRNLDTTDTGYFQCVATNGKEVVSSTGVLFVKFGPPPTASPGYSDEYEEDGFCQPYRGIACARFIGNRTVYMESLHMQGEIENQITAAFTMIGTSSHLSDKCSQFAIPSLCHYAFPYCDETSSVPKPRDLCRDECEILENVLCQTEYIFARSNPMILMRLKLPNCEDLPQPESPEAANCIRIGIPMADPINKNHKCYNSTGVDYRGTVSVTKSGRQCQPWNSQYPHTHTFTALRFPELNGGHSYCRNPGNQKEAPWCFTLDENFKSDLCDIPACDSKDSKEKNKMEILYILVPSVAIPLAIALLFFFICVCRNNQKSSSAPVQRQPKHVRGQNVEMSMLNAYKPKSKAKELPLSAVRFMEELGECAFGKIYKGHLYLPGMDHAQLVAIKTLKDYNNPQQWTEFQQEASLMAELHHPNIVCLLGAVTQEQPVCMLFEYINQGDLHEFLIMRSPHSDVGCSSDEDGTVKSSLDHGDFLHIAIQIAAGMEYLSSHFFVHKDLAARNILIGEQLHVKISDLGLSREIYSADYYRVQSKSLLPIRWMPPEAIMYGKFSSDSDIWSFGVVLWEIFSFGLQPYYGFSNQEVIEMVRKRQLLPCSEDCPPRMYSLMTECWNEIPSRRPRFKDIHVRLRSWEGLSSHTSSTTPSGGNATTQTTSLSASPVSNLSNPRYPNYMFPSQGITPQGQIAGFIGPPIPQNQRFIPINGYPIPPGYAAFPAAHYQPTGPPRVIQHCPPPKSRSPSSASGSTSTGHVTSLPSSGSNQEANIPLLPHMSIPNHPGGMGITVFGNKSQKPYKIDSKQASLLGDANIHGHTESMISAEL

[18] = biological target: T1, von Hippel-Lindau disease tumor suppressor/Inactive tyrosine-protein kinase transmembrane receptor ROR1; experiment: PROTAC activity at VHL/ROR1 in human NCI-H23 cells assessed as induction of ROR1 degradation by measuring maximal efficacy at 10 to 1000 nM incubated for 12 hrs by Western blot analysis relative to control; type: cell-based; settings: dose 10-1000 nM
Target sequence in this assay (P40337 whole entry): as the sequence (P40337 whole entry) above
Target sequence in this assay (Q01973 30-937 partner limits assumed): as the sequence (Q01973 30-937 partner limits assumed) above

[19] = biological target: T1, von Hippel-Lindau disease tumor suppressor/Inactive tyrosine-protein kinase transmembrane receptor ROR1; experiment: PROTAC activity at VHL/ROR1 in human NCI-H23 cells assessed as induction of ROR1 degradation incubated for 12 hrs by Western blot analysis; type: cell-based
NCI-H23 [20] = experiment: Induction of apoptosis in human NCI-H23 cells assessed as PARP1 cleavage at 0.1 uM measured after 10 hrs by Western blot analysis; type: functional, cell-based
[21] = biological target: T2, von Hippel-Lindau disease tumor suppressor/Cyclin-dependent kinase-like 2 (Homo sapiens) (UniProt Q92772+P40337); experiment: PROTAC activity at VHL/CDKL2 in human NCI-H1975 cells assessed as induction of CDKL2 degradation by Western blot analysis; type: cell-based
T2 sequence (P40337 whole entry, looked up): as the sequence (P40337 whole entry) above
T2 sequence (Q92772 whole entry, looked up): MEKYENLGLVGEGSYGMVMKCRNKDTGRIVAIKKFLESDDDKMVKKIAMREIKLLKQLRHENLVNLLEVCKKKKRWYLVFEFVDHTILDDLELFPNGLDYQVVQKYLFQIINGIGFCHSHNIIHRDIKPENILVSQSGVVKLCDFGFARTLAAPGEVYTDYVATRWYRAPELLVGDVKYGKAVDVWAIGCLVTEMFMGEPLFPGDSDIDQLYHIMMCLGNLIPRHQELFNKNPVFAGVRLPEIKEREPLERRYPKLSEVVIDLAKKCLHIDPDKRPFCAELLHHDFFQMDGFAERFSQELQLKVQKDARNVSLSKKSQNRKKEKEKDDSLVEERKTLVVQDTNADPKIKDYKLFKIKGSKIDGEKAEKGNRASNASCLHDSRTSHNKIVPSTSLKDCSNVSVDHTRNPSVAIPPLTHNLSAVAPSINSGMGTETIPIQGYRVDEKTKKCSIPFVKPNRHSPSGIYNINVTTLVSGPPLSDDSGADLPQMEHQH

[22] = biological target: T1, von Hippel-Lindau disease tumor suppressor/Inactive tyrosine-protein kinase transmembrane receptor ROR1; experiment: PROTAC activity at VHL/ROR1 in human NCI-H23 cells assessed as induction of ROR1 degradation at 1 uM incubated for 24 hrs by Western blot analysis; type: cell-based
Target sequence in this assay (P40337 whole entry): as the sequence (P40337 whole entry) above
Target sequence in this assay (Q01973 30-937 partner limits assumed): as the sequence (Q01973 30-937 partner limits assumed) above

[23] = biological target: T1, von Hippel-Lindau disease tumor suppressor/Inactive tyrosine-protein kinase transmembrane receptor ROR1; experiment: PROTAC activity at VHL/ROR1 in human NCI-H1975 cells assessed as induction of ROR1 degradation incubated for 12 hrs by Western blot analysis; type: cell-based
Target sequence in this assay (P40337 whole entry): as the sequence (P40337 whole entry) above
Target sequence in this assay (Q01973 whole entry): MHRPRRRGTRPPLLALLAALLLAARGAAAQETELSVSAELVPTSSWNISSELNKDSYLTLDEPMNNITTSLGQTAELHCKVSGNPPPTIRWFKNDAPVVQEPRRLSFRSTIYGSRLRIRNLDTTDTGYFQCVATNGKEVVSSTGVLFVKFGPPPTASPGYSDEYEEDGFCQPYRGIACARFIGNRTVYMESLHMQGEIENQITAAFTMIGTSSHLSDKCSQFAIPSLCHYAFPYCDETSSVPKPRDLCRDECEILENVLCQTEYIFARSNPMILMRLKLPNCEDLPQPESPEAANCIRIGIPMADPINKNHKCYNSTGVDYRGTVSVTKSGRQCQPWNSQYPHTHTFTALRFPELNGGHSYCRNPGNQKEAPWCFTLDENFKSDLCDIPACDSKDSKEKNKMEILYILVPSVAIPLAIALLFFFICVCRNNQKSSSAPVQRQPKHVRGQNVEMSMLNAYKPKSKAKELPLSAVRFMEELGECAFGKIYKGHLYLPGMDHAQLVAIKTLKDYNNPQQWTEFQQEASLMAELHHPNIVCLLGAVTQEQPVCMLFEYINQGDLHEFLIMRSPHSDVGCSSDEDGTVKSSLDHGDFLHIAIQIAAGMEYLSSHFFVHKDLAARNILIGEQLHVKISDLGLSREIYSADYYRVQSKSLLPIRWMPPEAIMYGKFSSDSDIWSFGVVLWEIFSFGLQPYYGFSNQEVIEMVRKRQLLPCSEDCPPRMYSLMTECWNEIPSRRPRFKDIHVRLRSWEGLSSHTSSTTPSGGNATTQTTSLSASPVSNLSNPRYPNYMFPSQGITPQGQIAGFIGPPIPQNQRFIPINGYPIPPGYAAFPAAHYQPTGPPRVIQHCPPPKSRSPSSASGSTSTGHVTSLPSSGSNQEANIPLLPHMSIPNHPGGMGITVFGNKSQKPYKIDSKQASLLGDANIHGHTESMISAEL

[24] = biological target: T1, von Hippel-Lindau disease tumor suppressor/Inactive tyrosine-protein kinase transmembrane receptor ROR1; experiment: PROTAC activity at VHL/ROR1 in human NCI-H23 cells assessed as induction of ROR1 degradation at 0.7 uM preincubated with PS-341 for 2 hrs followed by compound addition and measured after 24 hrs by Western blot analysis; type: cell-based
Target sequence in this assay (P40337 whole entry): as the sequence (P40337 whole entry) above
Target sequence in this assay (Q01973 30-937 partner limits assumed): as the sequence (Q01973 30-937 partner limits assumed) above

[25] = biological target: T3, von Hippel-Lindau disease tumor suppressor/Cyclin-dependent kinase 7 (Homo sapiens) (UniProt P50613+P40337); experiment: PROTAC activity at VHL/CDK7 in human NCI-H1975 cells assessed as induction of CDK7 degradation by Western blot analysis; type: cell-based
[26] = biological target: T1, von Hippel-Lindau disease tumor suppressor/Inactive tyrosine-protein kinase transmembrane receptor ROR1; experiment: PROTAC activity at VHL/ROR1 in human NCI-H23 cells assessed as induction of ROR1 degradation at 1 uM incubated for 4 hrs by Western blot analysis; type: cell-based
Target sequence in this assay (P40337 whole entry): as the sequence (P40337 whole entry) above
Target sequence in this assay (Q01973 30-937 partner limits assumed): as the sequence (Q01973 30-937 partner limits assumed) above

[27] = biological target: T1, von Hippel-Lindau disease tumor suppressor/Inactive tyrosine-protein kinase transmembrane receptor ROR1; experiment: PROTAC activity at VHL/ROR1 in human NCI-H23 cells assessed as induction of ROR1 degradation at 1 uM incubated for 24 hrs by Western blot analysis relative to control; type: cell-based
Target sequence in this assay (P40337 whole entry): as the sequence (P40337 whole entry) above
Target sequence in this assay (Q01973 30-937 partner limits assumed): as the sequence (Q01973 30-937 partner limits assumed) above

[28] = biological target: T4, von Hippel-Lindau disease tumor suppressor/Tyrosine-protein kinase transmembrane receptor ROR2 (Homo sapiens) (UniProt Q01974+P40337); experiment: PROTAC activity at VHL/ROR2 in human NCI-H23 cells assessed as induction of ROR2 degradation by Western blot analysis; type: cell-based
T4 sequence (P40337 whole entry, looked up): as the sequence (P40337 whole entry) above
T4 sequence (Q01974 whole entry, looked up): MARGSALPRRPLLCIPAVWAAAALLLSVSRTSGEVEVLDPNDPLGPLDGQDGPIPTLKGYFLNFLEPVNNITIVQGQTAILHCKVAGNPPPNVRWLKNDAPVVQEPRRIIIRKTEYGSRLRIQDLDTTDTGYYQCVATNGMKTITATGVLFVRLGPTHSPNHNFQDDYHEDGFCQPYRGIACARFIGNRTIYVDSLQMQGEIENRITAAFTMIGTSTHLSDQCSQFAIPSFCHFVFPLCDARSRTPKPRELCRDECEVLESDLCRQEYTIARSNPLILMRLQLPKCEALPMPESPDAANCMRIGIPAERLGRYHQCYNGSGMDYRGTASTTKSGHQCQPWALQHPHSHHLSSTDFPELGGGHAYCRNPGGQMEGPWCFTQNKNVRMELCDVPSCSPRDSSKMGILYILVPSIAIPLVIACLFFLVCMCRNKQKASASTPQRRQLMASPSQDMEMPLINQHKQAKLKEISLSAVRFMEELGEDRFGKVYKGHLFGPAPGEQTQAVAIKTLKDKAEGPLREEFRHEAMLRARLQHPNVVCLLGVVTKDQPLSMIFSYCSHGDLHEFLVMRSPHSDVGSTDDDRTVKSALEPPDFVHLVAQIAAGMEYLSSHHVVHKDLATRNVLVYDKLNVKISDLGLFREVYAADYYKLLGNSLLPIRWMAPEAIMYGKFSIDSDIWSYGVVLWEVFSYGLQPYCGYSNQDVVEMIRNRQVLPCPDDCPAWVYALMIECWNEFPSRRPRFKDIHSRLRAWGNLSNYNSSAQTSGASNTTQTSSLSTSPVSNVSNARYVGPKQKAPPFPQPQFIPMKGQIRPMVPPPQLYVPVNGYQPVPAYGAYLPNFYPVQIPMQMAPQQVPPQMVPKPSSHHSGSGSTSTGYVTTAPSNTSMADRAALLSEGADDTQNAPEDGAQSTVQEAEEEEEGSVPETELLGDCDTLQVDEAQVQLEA

[29] = biological target: T1, von Hippel-Lindau disease tumor suppressor/Inactive tyrosine-protein kinase transmembrane receptor ROR1; experiment: PROTAC activity at VHL/ROR1 in human NCI-H23 cells assessed as induction of ROR1 degradation at 0.5 uM preincubated with bafilomycin A1 for 2 hrs followed by compound addition and measured after 24 hrs by Western blot analysis; type: cell-based
[30] = biological target: T3, von Hippel-Lindau disease tumor suppressor/Cyclin-dependent kinase 7 (Homo sapiens); experiment: PROTAC activity at VHL/CDK7 in human NCI-H23 cells assessed as induction of CDK7 degradation by Western blot analysis; type: cell-based
[31] = biological target: T4, von Hippel-Lindau disease tumor suppressor/Tyrosine-protein kinase transmembrane receptor ROR2 (Homo sapiens); experiment: PROTAC activity at VHL/ROR2 in human NCI-H1975 cells assessed as induction of ROR2 degradation at 1 uM by Western blot analysis; type: cell-based
[32] = biological target: T1, von Hippel-Lindau disease tumor suppressor/Inactive tyrosine-protein kinase transmembrane receptor ROR1; experiment: PROTAC activity at VHL/ROR1 in human NCI-H23 cells assessed as induction of ROR1 degradation at 1 uM by Western blot analysis; type: cell-based; settings: time 2-24 hrs
[33] = biological target: T1, von Hippel-Lindau disease tumor suppressor/Inactive tyrosine-protein kinase transmembrane receptor ROR1; experiment: PROTAC activity at VHL/ROR1 in human NCI-H460 cells assessed as induction of ROR1 degradation incubated for 12 hrs by Western blot analysis; type: cell-based
Target sequence in this assay (P40337 whole entry): as the sequence (P40337 whole entry) above
Target sequence in this assay (Q01973 whole entry): as the sequence (Q01973 whole entry) above

[34] = biological target: T1, von Hippel-Lindau disease tumor suppressor/Inactive tyrosine-protein kinase transmembrane receptor ROR1; experiment: PROTAC activity at VHL/ROR1 in human NCI-H23 cells assessed as induction of ROR1 degradation preincubated with cycloheximide followed by compound addition and measured after 6 hrs by Western blot analysis; type: cell-based
[35] = biological target: T5, von Hippel-Lindau disease tumor suppressor/Cyclin-dependent kinase 4 (Homo sapiens) (UniProt P11802+P40337); experiment: PROTAC activity at VHL/CDK4 in human NCI-H23 cells assessed as induction of CDK4 degradation by Western blot analysis; type: cell-based
[36] = biological target: T5, von Hippel-Lindau disease tumor suppressor/Cyclin-dependent kinase 4 (Homo sapiens); experiment: PROTAC activity at VHL/CDK4 in human NCI-H1975 cells assessed as induction of CDK4 degradation by Western blot analysis; type: cell-based
[37] = biological target: T1, von Hippel-Lindau disease tumor suppressor/Inactive tyrosine-protein kinase transmembrane receptor ROR1; experiment: PROTAC activity at VHL/ROR1 in human NCI-H1299 cells assessed as induction of ROR1 degradation incubated for 12 hrs by Western blot analysis; type: cell-based
Target sequence in this assay (P40337 whole entry): as the sequence (P40337 whole entry) above
Target sequence in this assay (Q01973 whole entry): as the sequence (Q01973 whole entry) above

[38] = biological target: T1, von Hippel-Lindau disease tumor suppressor/Inactive tyrosine-protein kinase transmembrane receptor ROR1; experiment: PROTAC activity at VHL/ROR1 in human NCI-H23 cells assessed as induction of ROR1 degradation at 0.1 uM incubated for 24 hrs by Western blot analysis relative to control; type: cell-based
[39] = biological target: T2, von Hippel-Lindau disease tumor suppressor/Cyclin-dependent kinase-like 2 (Homo sapiens); experiment: PROTAC activity at VHL/CDKL2 in human NCI-H23 cells assessed as induction of CDKL2 degradation by Western blot analysis; type: cell-based

IC50 (NCI-H460): 5210 nM
Kd [14]: 42000 nM
IC50 (NCI-H1975): 371 nM
IC50 (NCI-H1299): 5820 nM
IC50 (NCI-H23 [16]): 483 nM
Structure (SMILES): CCOCCN1CCN(c2ccc(-c3nc4c(NC5CCN(CC)CC5)c(Br)cnc4[nH]3)cc2)CC1
Activity (NCI-H23 [1]): 1%
viability at 1 µM (NCI-H23 [2]): 63.7%
Activity (NCI-H23 [3]): 0.2%
Activity (NCI-H23 [4]): 0.5%
viability at 0.1 µM (NCI-H23 [5]): 96.9%
Activity (NCI-H23 [6]): 0.7%
Activity (NCI-H23 [7]): 0.2%
Activity (NCI-H23 [8]): Active; Less Potent Compared To Compound 11
Activity (NCI-H23 [9]): 4.3%
Activity (NCI-H23 [10]): 29.5%
Activity (NCI-H23 [11]): 100%
Activity (NCI-H23 [12]): 6.1%
viability at 0.3 µM (NCI-H23 [13]): 94.5%
Activity (NCI-H23 [15]): 2.5%

Activity [17]: inactive
Emax [18]: 93.7%
Activity [19]: Dose-dependent-effect
DC50 [19]: 40.9 nM
Activity [21]: inactive
Activity [22]: Active; Maximal Degradation Observed
DC50 [23]: 42.1 nM
Activity [24]: inactive
Activity [25]: inactive
Activity [26]: Active
Activity [27]: 99.7%
Activity [28]: inactive
Activity [29]: Active
Activity [30]: inactive
Activity [31]: Active; Slight Degradation Observed
Activity [32]: Time-dependent-effect
IC50 (NCI-H460): 85 nM
DC50 [33]: 69 nM
Activity [35]: inactive
Activity [36]: inactive
DC50 [37]: 83.3 nM
Activity [38]: 93%
Activity [39]: inactive
IC50 (NCI-H1975): 63 nM
IC50 (NCI-H1299): 164 nM
IC50 (NCI-H23 [16]): 36 nM
Structure (SMILES): CCN1CCC(Nc2c(Br)cnc3[nH]c(-c4ccc(N5CCN(C(=O)CCCCCCCCC(=O)N[C@H](C(=O)N6C[C@H](O)C[C@H]6C(=O)NCc6ccc(-c7scnc7C)cc6)C(C)(C)C)CC5)cc4)nc23)CC1
Activity (NCI-H23 [1]): 20.1%
Activity (NCI-H23 [20]): Active
viability at 1 µM (NCI-H23 [2]): 29.9%
Activity (NCI-H23 [3]): 0.8%
Activity (NCI-H23 [4]): 6.5%
viability at 0.1 µM (NCI-H23 [5]): 63.2%
Activity (NCI-H23 [6]): 1.4%
Activity (NCI-H23 [7]): 0.3%
Activity (NCI-H23 [9]): 46.5%
Activity (NCI-H23 [10]): 46.9%
Activity (NCI-H23 [12]): 22.1%
Activity [34]: Active; Compound Reduction Ror1 Protein Via Protein Degradation Pathway
viability at 0.3 µM (NCI-H23 [13]): 32.5%
Activity (NCI-H23 [15]): 29.9%
